This is an account of results in patent publication US20250170266A1 (ZYMEWORKS BC INC., priority 2022, published 2025).

Like-named read-outs stand apart in the source and are kept apart here.

Assay type in all cases: cell-based
One assay has as its system Mouse splenocytes. As to the kind of experiment: Mouse Splenocyte Assay, cytokine release (HTRF). Particulars: 24 hours, mIL6 in supernatant; for EC50: Splenocyte, read-out: Splenocyte IL6 EC50. On the procedure: Mouse splenocytes were isolated from fresh mouse spleens. Briefly, spleens were harvested from female balb/c nude mice and transferred to a 70 μm cell strainer. The cell strainer was subsequently placed in a 6-well suspension culture plate containing 5 mL media (RPMI+10% FBS). The spleens were crushed against the cell strainer using the flat end of a 10 mL syringe plunger and the cell strainer was washed with 5 mL media. The cell strainer was discarded, and the cell suspension was washed in PBS. Red blood cells were removed using PharmaLyse (BD). The cell suspension was washed in media, resuspended in CryoStor® CS10 ([…]) and frozen. On assay day, mouse splenocytes were thawed in warm assay buffer (RPMI+10% FBS). Cells were spun down and resuspended in fresh assay buffer. 100,000 cells were added to each well of plates containing test compound. For test compound preparation, each compound was initially diluted to 1 mM in DMSO and further diluted in assay buffer. A 4-fold 11-point titration starting from 15 μM was performed. Cells were incubated with test compound at 37° C.+5% CO2 for 24 hours before supernatant was harvested. Murine IL6 (mIL6) and murine TNFα (mTNFα) were quantified in the supernatant using homogeneous time resolved fluorescence (Cisbio).
(§1) Each assay included a positive control compound (referred to herein as “benchmark,” see, e.g., TABLE 3 below, and taken from International Patent Publication No. WO2017/072662, structure shown below) and a negative control (growth medium). […] The structure of the benchmark compound from International Patent Publication No. WO 2017/072662 is as follows: […]

The target of another assay is T1, mTLR7 (Mus musculus, UniProt P58681).
T1 construct: host or cells: HEK-Blue mTLR7 reporter cells (HEK293-derived, own knowledge)
T1 sequence (P58681 27-1050): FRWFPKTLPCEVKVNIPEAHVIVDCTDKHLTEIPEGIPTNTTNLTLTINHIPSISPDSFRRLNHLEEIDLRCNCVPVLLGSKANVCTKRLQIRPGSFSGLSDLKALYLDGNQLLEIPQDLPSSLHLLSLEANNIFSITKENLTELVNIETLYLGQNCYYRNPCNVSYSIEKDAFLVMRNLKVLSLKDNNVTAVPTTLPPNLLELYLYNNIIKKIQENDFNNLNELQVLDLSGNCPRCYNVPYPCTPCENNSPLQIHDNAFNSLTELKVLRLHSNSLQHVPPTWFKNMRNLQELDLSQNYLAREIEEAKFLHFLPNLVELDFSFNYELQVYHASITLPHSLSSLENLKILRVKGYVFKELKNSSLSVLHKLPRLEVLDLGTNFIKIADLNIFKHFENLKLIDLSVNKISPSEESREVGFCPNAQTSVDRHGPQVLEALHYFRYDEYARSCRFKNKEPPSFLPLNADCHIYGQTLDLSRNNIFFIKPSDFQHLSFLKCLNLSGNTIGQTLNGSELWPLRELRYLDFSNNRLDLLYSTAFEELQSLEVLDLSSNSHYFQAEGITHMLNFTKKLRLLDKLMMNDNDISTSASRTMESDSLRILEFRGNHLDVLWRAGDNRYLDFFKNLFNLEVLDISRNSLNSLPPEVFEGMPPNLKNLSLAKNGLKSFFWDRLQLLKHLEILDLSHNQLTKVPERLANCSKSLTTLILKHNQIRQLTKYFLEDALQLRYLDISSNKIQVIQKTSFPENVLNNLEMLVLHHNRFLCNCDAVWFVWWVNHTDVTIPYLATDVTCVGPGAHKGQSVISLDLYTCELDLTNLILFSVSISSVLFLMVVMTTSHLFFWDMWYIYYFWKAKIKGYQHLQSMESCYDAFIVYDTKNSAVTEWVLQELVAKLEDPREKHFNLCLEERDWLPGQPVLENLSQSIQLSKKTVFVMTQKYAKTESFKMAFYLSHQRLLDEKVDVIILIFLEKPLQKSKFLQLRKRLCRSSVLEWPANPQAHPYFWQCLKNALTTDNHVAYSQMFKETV
As to the kind of experiment: Reporter Gene Assay (RGA), HEK-Blue mTLR7 reporter cells, SEAP readout. Particulars: overnight incubation, SEAP absorbance 620 nm. As for the experimental part:
(§2) 1.5×10^4 HEK-Blue™ hTLR7 (Invivogen, San Diego, CA) or HEK-Blue™ mTLR7 (Invivogen, San Diego, CA) reporter cells were treated with a titration series of test compound (4-fold titration from […], 11 points). Compounds were initially diluted to 1 mM in DMSO and subsequently serial-diluted in assay media (HEK-Blue™ Detection; Invivogen, San Diego, CA). Cells with test compound were incubated overnight at 37° C.+5% CO2, and the amount of secreted embryonic alkaline phosphatase (SEAP) was determined by measuring absorbance (620 nm) using a Synergy™ H1 microplate reader.
as §1

The test system of assay [1] is Human peripheral blood mononuclear cells (PBMCs). As to the kind of experiment: Human PBMC Assay, cytokine release (HTRF). Particulars: 24 hours; for EC50: PBMC.
From the text: Human peripheral blood mononuclear cells (PBMCs) were isolated from fresh Leukopak using magnetic separation. Briefly, erythrocytes and granulocytes were magnetically labeled with Erythrocyte Depletion MicroBeads (Miltenyi Biotec) and Granulocyte Depletion MicroBeads (Miltenyi Biotec), respectively. The cell suspension was loaded onto a Multi-24 Column Block (Miltenyi Biotec) and placed in the magnetic field of a MultiMACS Cell24 Separator Plus (Miltenyi Biotec). The unlabelled PBMCs were collected in the run through. PBMCs were resuspended in CryoStor® CS10 ([…]) and frozen. On the day before the assay, PBMCs were thawed in warm assay buffer (RPMI+10% FBS) and resuspended in assay buffer+10 ng/ml hIL3 (R&D Systems). Cells were rested at 37° C.+5% CO2 overnight. The following day, cells were spun down and resuspended in fresh assay buffer. 300,000 cells were added to each well of plates containing test compound. For test compound preparation, each compound was initially diluted to 1 mM in DMSO and further diluted in assay buffer. A 4-fold 11-point titration starting from 15 μM was performed. Cells were incubated with test compound at 37° C.+5% CO2 for 24 hours before supernatant was harvested. Human interleukin 6 (hIL6), human tumor necrosis factor alpha (hTNFα), and human interferon alpha (hIFNα) were quantified in the supernatant using homogeneous time resolved fluorescence (Cisbio).
as §1

The next assay concerns the target T2, hTLR7 (Homo sapiens, UniProt Q9NYK1).
T2 construct: host or cells: HEK-Blue hTLR7 reporter cells (HEK293-derived, own knowledge)
T2 sequence (Q9NYK1 27-1049): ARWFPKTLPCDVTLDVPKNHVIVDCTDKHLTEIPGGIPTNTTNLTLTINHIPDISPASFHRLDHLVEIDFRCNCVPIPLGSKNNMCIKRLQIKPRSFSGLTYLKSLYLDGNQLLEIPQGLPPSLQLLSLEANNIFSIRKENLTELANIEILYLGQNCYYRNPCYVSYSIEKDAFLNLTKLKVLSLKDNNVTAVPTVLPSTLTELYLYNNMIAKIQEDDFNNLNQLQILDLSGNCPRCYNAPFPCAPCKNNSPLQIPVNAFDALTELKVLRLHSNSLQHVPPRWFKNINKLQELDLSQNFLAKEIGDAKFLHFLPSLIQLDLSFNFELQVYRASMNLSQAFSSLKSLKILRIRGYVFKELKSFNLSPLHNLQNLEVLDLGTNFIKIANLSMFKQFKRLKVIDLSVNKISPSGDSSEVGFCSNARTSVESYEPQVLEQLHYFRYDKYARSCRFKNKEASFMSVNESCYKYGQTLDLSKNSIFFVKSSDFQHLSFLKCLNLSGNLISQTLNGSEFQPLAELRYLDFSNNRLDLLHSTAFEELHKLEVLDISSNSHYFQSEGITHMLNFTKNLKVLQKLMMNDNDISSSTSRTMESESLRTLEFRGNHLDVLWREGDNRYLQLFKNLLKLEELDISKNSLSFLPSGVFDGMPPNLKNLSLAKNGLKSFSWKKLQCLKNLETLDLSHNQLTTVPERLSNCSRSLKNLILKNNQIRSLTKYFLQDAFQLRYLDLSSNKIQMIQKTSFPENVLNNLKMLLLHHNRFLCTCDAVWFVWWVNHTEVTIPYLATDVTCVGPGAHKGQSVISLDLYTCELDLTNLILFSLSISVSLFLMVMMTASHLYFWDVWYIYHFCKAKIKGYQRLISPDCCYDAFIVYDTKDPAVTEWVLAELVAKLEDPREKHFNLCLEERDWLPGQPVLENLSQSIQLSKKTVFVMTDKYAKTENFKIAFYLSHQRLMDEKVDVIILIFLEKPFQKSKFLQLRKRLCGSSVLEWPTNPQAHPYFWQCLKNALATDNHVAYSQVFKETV
Nature of the assay: Reporter Gene Assay (RGA), HEK-Blue hTLR7 reporter cells, SEAP readout. Particulars: overnight incubation, SEAP absorbance 620 nm. As for the experimental part:
as §2, §1

[2] abbreviates: hIFNα in supernatant, EC50 values approximated and divided into groups, read-out: PBMC IFNa EC50.
The mark [3] stands for this setting: hIL6 in supernatant, read-out: PBMC IL6 EC50.

`CCCCOc1nc(N)c2nc(O)n(Cc3ccc(CNC(CO)[C@@H](C)CC)cc3OC)c2n1` (stereo in doubt) [Compound 161, 6-amino-2-butoxy-9-(4-((((2R,3S)-1-hydroxy-3-methylpentan-2-yl)amino)-methyl)-2-methoxybenzyl)-9H-purin-8-ol]: the EC50 with Mouse splenocytes was 0.3 nM; at mTLR7, under 0.1 nM; in assay [1] (setting [2]) it was under 0.1 nM; in assay [1] (setting [3]), 16.7 nM; at hTLR7, under 0.1 nM.

On to `CCCCCNc1nc(N)nc2ccn(Cc3ccc(CN4CCN(CCNC(=O)CC(SCC(N)C(=O)O)C(=O)O)CC4)cc3OC)c12` (stereo not drawn) [Benchmark, reference compound], for which the values for the half-maximal effective concentration (EC50) (in the assay on Mouse splenocytes; in assay [1] (setting [2]); in assay [1] (setting [3])) were 222 nM, 1 to 10 nM and 207 nM, respectively.

Take `CCOc1nc(N)c2nc(O)n(Cc3ccc(CN4CCNCC4)cc3OC)c2n1` [Compound 100, 6-amino-2-ethoxy-9-(2-methoxy-4-(piperazin-1-ylmethyl)benzyl)-9H-purin-8-ol]: the EC50 in the assay with Mouse splenocytes was 2940 nM; on mTLR7 it was 77.9 nM; in assay [1] (setting [2]), 1 to 10 nM; in assay [1] (setting [3]), 240 nM; on hTLR7 it was 6.3 nM.

On to `CCOc1nc(N)c2nc(O)n(Cc3ccc(CNCC(C)(C)O)cc3OC)c2n1` [Compound 101, 6-amino-2-ethoxy-9-(4-(((2-hydroxy-2-methylpropyl)amino)methyl)-2-methoxybenzyl)-9H-purin-8-ol], for which the EC50 with Mouse splenocytes is 154 nM; at mTLR7 it was 47.7 nM; in assay [1] (setting [2]) it was 0.1 to 1 nM; in assay [1] (setting [3]), 127 nM; at hTLR7, 57 nM.

`CCOc1nc(N)c2nc(O)n(Cc3ccc(CN(CC)CC)cc3OC)c2n1` [Compound 102, 6-amino-9-(4-((diethylamino)methyl)-2-methoxybenzyl)-2-ethoxy-9H-purin-8-ol]: the EC50 is 99.7 nM in the assay with Mouse splenocytes; 5 nM at mTLR7; under 0.1 nM in assay [1] (setting [2]); 69.1 nM in assay [1] (setting [3]); 2 nM on hTLR7.

For `CCOc1nc(N)c2nc(O)n(Cc3ccc(CNCCCCCO)cc3OC)c2n1` [Compound 103, 6-amino-2-ethoxy-9-(4-(((5-hydroxypentyl)amino)methyl)-2-methoxy-benzyl)-9H-purin-8-ol], the EC50 is 1330 nM with Mouse splenocytes; 27.4 nM on mTLR7; 0.1 to 1 nM in assay [1] (setting [2]); 9270 nM in assay [1] (setting [3]); 138 nM at hTLR7.

For the compound `CCOc1nc(N)c2nc(O)n(Cc3ccc(CNCCCN4CCN(CCCN)CC4)cc3OC)c2n1` [Compound 104, 6-amino-9-(4-(((3-(4-(3-aminopropyl)piperazin-1-yl)propyl)amino)methyl)-2-methoxybenzyl)-2-ethoxy-9H-purin-8-ol], the half-maximal effective concentration (EC50) was 1360 nM in the assay with Mouse splenocytes; 1040 nM at mTLR7; over 10 nM in assay [1] (setting [2]); 598 nM in assay [1] (setting [3]); 1310 nM on hTLR7.

Regarding `CCOc1nc(N)c2nc(O)n(Cc3ccc(CN[C@@H](Cc4ccccc4)C(=O)O)cc3OC)c2n1` [Compound 117, (4-((6-amino-2-ethoxy-8-hydroxy-9H-purin-9-yl)methyl)-3-methoxybenzyl)-L-phenylalanine], the “Splenocyte IL6 EC50 (nM)” value with Mouse splenocytes is “inactive”. Further, the “PBMC IL6 EC50 (nM)” value in assay [1] (hIL6 in supernatant) is “inactive”. The EC50 is over 10 nM in assay [1] (setting [2]) and 13000 nM on hTLR7.

On to `CCCCOc1nc(N)c2nc(O)n(Cc3ccc(CCN4CCC(CCN)CC4)cc3OC)c2n1` [Compound 178, 6-amino-9-(4-(2-(4-(2-aminoethyl)piperidin-1-yl)ethyl)-2-methoxybenzyl)-2-butoxy-9H-purin-8-ol], for which the EC50 with Mouse splenocytes is 245 nM; in assay [1] (setting [2]), 1 to 10 nM; in assay [1] (setting [3]) it was 284 nM; at hTLR7 it was 144 nM.

As for `CCCCOc1nc(N)c2nc(O)n(Cc3ccc(CCN4CCC(N)CC4)cc3OC)c2n1` [Compound 181, 6-amino-9-(4-(2-(4-aminopiperidin-1-yl)ethyl)-2-methoxybenzyl)-2-butoxy-9H-purin-8-ol], the concentration giving a half-maximal response (EC50) in the assay on Mouse splenocytes is 235 nM; in assay [1] (setting [2]), over 10 nM; at hTLR7, 4.5 nM. In addition, the “PBMC IL6 EC50 (nM)” value in assay [1] (hIL6 in supernatant) was “inactive”.
